# Results from US10231965B2, “Molecules for administration to ROS1 mutant cancer cells” (Ignyta, Inc., priority 2014, dated 2019).
# Entries after “also recorded” stand apart in the source; their conditions may differ.
# Experiments:
# [1] = Dose escalation study in human patients with advanced solid tumors: PK; format: in vivo
# Protocol: (§1) A dose escalation study of N-[5-(3,5-difluorobenzyl)-1H-indazol-3-yl]-4-(4-methyl-piperazin-1-yl)-2-(tetrahydro-2H-pyran-4-ylamino) benzamide was conducted in human patients with advanced solid tumors. N-[5-(3,5-difluorobenzyl)-1H-indazol-3-yl]-4-(4-methyl-piperazin-1-yl)-2-(tetrahydro-2H-pyran-4-ylamino) benzamide was dosed orally once/day in a 4 day on, 3 day off schedule for 3 weeks, followed by a 7 day rest period, in continuous 28-day cycles (Schedule A); once/day in continuous 28-day cycles (Schedule B); and once/day in a 4 day on, 3 day off schedule without interruption in continuous 28-day cycles (Schedule C). A minimum of 3 patients were enrolled at each dose level. Endpoints include safety, PK, and tumor response by response evaluation criteria in solid tumors (RECIST).
# (§2) Schedule A evaluated ascending oral doses of N-[5-(3,5-difluorobenzyl)-1H-indazol-3-yl]-4-(4-methyl-piperazin-1-yl)-2-(tetrahydro-2H-pyran-4-ylamino) benzamide once daily (fasted state) in a 4-day on, 3-day off schedule for 3 weeks, followed by a 7-day rest period, in continuous 28-day cycles. Dose escalation was conducted according to the standard ‘3+3’ scheme.
# (§3) Schedule B evaluated ascending oral doses of N-[5-(3,5-difluorobenzyl)-1H-indazol-3-yl]-4-(4-methyl-piperazin-1-yl)-2-(tetrahydro-2H-pyran-4-ylamino) benzamide once daily (fed state) without rest, in continuous 28-day cycles.
# (§4) Schedule C evaluated ascending oral doses of N-[5-(3,5-difluorobenzyl)-1H-indazol-3-yl]-4-(4-methyl-piperazin-1-yl)-2-(tetrahydro-2H-pyran-4-ylamino) benzamide once daily (fed state) in a 4-day on, 3-day off schedule for 4 weeks without rest, in continuous 28-day cycles.
# [2] = system: human patients with advanced solid tumors; assay: Dose escalation study in human patients with advanced solid tumors: safety, adverse events; format: in vivo
# Protocol: as §1, §2, §3, §4
# [3] = system: Non-Small Cell Lung Cancer (NSCLC); assay: Dose escalation study: tumor response by RECIST, NSCLC patients; format: in vivo, human
# Protocol: as §1, §2, §3, §4
# [4] = system: Colorectal Cancer (CRC); assay: Dose escalation study: tumor response by RECIST, CRC patient; format: in vivo, human; conditions: person, metastatic CRC, TrkA rearrangement, 1600 mg/m^2, Schedule A
# Protocol: as §1, §2, §3, §4
# [5] = system: Neuroblastoma (NB); assay: Dose escalation study: tumor response by RECIST, neuroblastoma patient; format: in vivo, human; conditions: person, metastatic NB, ALK mutation, Schedule A
# Protocol: as §1, §2
# Schedule B evaluated ascending oral doses of N-[5-(3,5-difluorobenzyl)-1H-indazol-3-yl]-4-(4-methyl-piperazin-1-yl)-2-(tetrahydro-2H-pyran-4-ylamino) benzamide once daily (fed state) without rest, in continuous 28-day cycles. […]
# [6] = system: advanced solid tumors; assay: Dose escalation study: tumor response by RECIST, all patients; format: in vivo, human
# Protocol: as §1, §2, §3, §4
smiles,measurement,setting,value
"CN1CCN(c2ccc(C(=O)Nc3n[nH]c4ccc(Cc5cc(F)cc(F)c5)cc34)c(NC3CCOCC3)c2)CC1 [N-[5-(3,5-difluorobenzyl)-1H-indazol-3-yl]-4-(4-methyl-piperazin-1-yl)-2-(tetrahydro-2H-pyran-4-ylamino) benzamide]",exposure at top dose (reason Schedule A was terminated),"[1]; Schedule A, 1600 mg/m2/day",plateau
same,mean plasma half-life,"[1]; human patients, oral once/day, following administration",17 to 44 h
same,Exposure versus dose,"[1]; human patients, oral, dosing Schedule A",increased in an approximate dose proportional manner up to doses of 800 mg/m^2
same,Abdominal pain G1 (%),"[2]; 25 patients, all schedules",16%
same,"Abdominal pain G1, number of patients","[2]; 25 patients, all schedules",4
same,Abdominal pain G2 (%),"[2]; 25 patients, all schedules",8%
same,"Abdominal pain G2, number of patients","[2]; 25 patients, all schedules",2
same,Abdominal pain Total (%),"[2]; 25 patients, all schedules",24%
same,"Abdominal pain Total, number of patients","[2]; 25 patients, all schedules",6
same,Arthralgia G1 (%),"[2]; 25 patients, all schedules",12%
same,"Arthralgia G1, number of patients","[2]; 25 patients, all schedules",3
same,Arthralgia G2 (%),"[2]; 25 patients, all schedules",12%
same,"Arthralgia G2, number of patients","[2]; 25 patients, all schedules",3
same,Arthralgia Total (%),"[2]; 25 patients, all schedules",24%
same,"Arthralgia Total, number of patients","[2]; 25 patients, all schedules",6
same,Asthenia G1 (%),"[2]; 25 patients, all schedules",36%
same,"Asthenia G1, number of patients","[2]; 25 patients, all schedules",9
same,Asthenia G2 (%),"[2]; 25 patients, all schedules",12%
same,"Asthenia G2, number of patients","[2]; 25 patients, all schedules",3
same,Asthenia Total (%),"[2]; 25 patients, all schedules",52%
same,"Asthenia Total, number of patients","[2]; 25 patients, all schedules",13
same,Back Pain G1 (%),"[2]; 25 patients, all schedules",20%
same,"Back Pain G1, number of patients","[2]; 25 patients, all schedules",5
same,Back Pain G2 (%),"[2]; 25 patients, all schedules",4%
same,"Back Pain G2, number of patients","[2]; 25 patients, all schedules",1
same,Back Pain Total (%),"[2]; 25 patients, all schedules",24%
same,"Back Pain Total, number of patients","[2]; 25 patients, all schedules",6
same,Cough G1 (%),"[2]; 25 patients, all schedules",16%
same,"Cough G1, number of patients","[2]; 25 patients, all schedules",4
same,Cough G2 (%),"[2]; 25 patients, all schedules",4%
same,"Cough G2, number of patients","[2]; 25 patients, all schedules",1
same,Cough Total (%),"[2]; 25 patients, all schedules",20%
same,"Cough Total, number of patients","[2]; 25 patients, all schedules",5
same,Diarrhea G1 (%),"[2]; 25 patients, all schedules",24%
same,"Diarrhea G1, number of patients","[2]; 25 patients, all schedules",6
same,Diarrhea G2 (%),"[2]; 25 patients, all schedules",8%
same,"Diarrhea G2, number of patients","[2]; 25 patients, all schedules",2
same,Diarrhea Total (%),"[2]; 25 patients, all schedules",32%
same,"Diarrhea Total, number of patients","[2]; 25 patients, all schedules",8
same,Dysgeusia G1 (%),"[2]; 25 patients, all schedules",24%
same,"Dysgeusia G1, number of patients","[2]; 25 patients, all schedules",6
same,Dysgeusia G2 (%),"[2]; 25 patients, all schedules",0 (0) %
same,"Dysgeusia G2, number of patients","[2]; 25 patients, all schedules",0 (0)
same,Dysgeusia Total (%),"[2]; 25 patients, all schedules",24%
same,"Dysgeusia Total, number of patients","[2]; 25 patients, all schedules",6
same,Dyspnea G1 (%),"[2]; 25 patients, all schedules",12%
same,"Dyspnea G1, number of patients","[2]; 25 patients, all schedules",3
same,Dyspnea G2 (%),"[2]; 25 patients, all schedules",4%
same,"Dyspnea G2, number of patients","[2]; 25 patients, all schedules",1
same,Dyspnea Total (%),"[2]; 25 patients, all schedules",24%
same,"Dyspnea Total, number of patients","[2]; 25 patients, all schedules",6
same,Headache G1 (%),"[2]; 25 patients, all schedules",24%
same,"Headache G1, number of patients","[2]; 25 patients, all schedules",6
same,Headache G2 (%),"[2]; 25 patients, all schedules",0 (0) %
same,"Headache G2, number of patients","[2]; 25 patients, all schedules",0 (0)
same,Headache Total (%),"[2]; 25 patients, all schedules",24%
same,"Headache Total, number of patients","[2]; 25 patients, all schedules",6
same,Myalgia G1 (%),"[2]; 25 patients, all schedules",24%
same,"Myalgia G1, number of patients","[2]; 25 patients, all schedules",6
same,Myalgia G2 (%),"[2]; 25 patients, all schedules",4%
same,"Myalgia G2, number of patients","[2]; 25 patients, all schedules",1
same,Myalgia Total (%),"[2]; 25 patients, all schedules",28%
same,"Myalgia Total, number of patients","[2]; 25 patients, all schedules",7
same,Nausea G1 (%),"[2]; 25 patients, all schedules",56%
same,"Nausea G1, number of patients","[2]; 25 patients, all schedules",14
same,Nausea G2 (%),"[2]; 25 patients, all schedules",8%
same,"Nausea G2, number of patients","[2]; 25 patients, all schedules",2
same,Nausea Total (%),"[2]; 25 patients, all schedules",64%
same,"Nausea Total, number of patients","[2]; 25 patients, all schedules",16
same,Paresthesia G1 (%),"[2]; 25 patients, all schedules",60%
same,"Paresthesia G1, number of patients","[2]; 25 patients, all schedules",15
same,Paresthesia G2 (%),"[2]; 25 patients, all schedules",0 (0) %
same,"Paresthesia G2, number of patients","[2]; 25 patients, all schedules",0 (0)
same,Paresthesia Total (%),"[2]; 25 patients, all schedules",60%
same,"Paresthesia Total, number of patients","[2]; 25 patients, all schedules",15
same,Pyrexia G1 (%),"[2]; 25 patients, all schedules",24%
same,"Pyrexia G1, number of patients","[2]; 25 patients, all schedules",6
same,Pyrexia G2 (%),"[2]; 25 patients, all schedules",0 (0) %
same,"Pyrexia G2, number of patients","[2]; 25 patients, all schedules",0 (0)
same,Pyrexia Total (%),"[2]; 25 patients, all schedules",24%
same,"Pyrexia Total, number of patients","[2]; 25 patients, all schedules",6
same,Vomiting G1 (%),"[2]; 25 patients, all schedules",28%
same,"Vomiting G1, number of patients","[2]; 25 patients, all schedules",7
same,Vomiting G2 (%),"[2]; 25 patients, all schedules",8%
same,"Vomiting G2, number of patients","[2]; 25 patients, all schedules",2
same,Vomiting Total (%),"[2]; 25 patients, all schedules",36%
same,"Vomiting Total, number of patients","[2]; 25 patients, all schedules",9
same,"possibly drug-related Grade >3 AE observed (asthenia), number","[2]; Grade 3 in one patient, 1200 mg/m^2, Schedule A, subsided with dose reduction to 800 mg/m^2/day",1
same,severity of AEs,[2]; all dosing schedules tested,Most AEs<Grade 2
same,tolerability,"[2]; all dosing schedules tested, intermittent and daily continuous",well tolerated in all dosing schedules tested
same,"DLTs, study discontinuations due to AEs, drug-related SAEs",[2]; any dosing schedule,"No drug limiting toxicities, study discontinuations due to adverse events, or drug-related serious adverse events were reported; also recorded: No DLTs, study discontinuations due to AEs, or drug-related SAEs were reported"
same,most common adverse events (mainly grade 1-2) considered possibly treatment-related,"[2]; human patients, oral","nausea, paresthesia, vomiting, diarrhea, asthenia, myalgia, arthralgia, and dysgeusia"
same,"possibly treatment-related grade 3 AE of asthenia, number","[2]; human patients, oral",one
same,tumor response,"[3]; person one, ROS1 rearrangement, s/p 3 cycles of chemotherapy, 400 mg/m2/day, Schedule C",partial response
same,cycles until response achieved,"[3]; person one, ROS1 rearrangement, 400 mg/m2/day, Schedule C",1 cycle
same,tumor response,"[3]; person two, ROS1 rearrangement, s/p 2 cycles of chemotherapy, 400 mg/m2/day, Schedule C",complete response
same,cycles until response achieved,"[3]; person two, ROS1 rearrangement, 400 mg/m2/day, Schedule C",2 cycles
same,cycles until response achieved,"[3]; person, ALK rearrangement, 1200 mg/m2/day, Schedule A",4 cycles
same,tumor response,"[3]; person, CNS metastases, ROS1 rearrangement, s/p chemotherapy, erlotinib, 1200 mg/m^2/day, Schedule A",partial response
same,cycles until response achieved,"[3]; person, CNS metastases, ROS1 rearrangement, 1200 mg/m^2/day, Schedule A",2 cycles
same,tumor response,"[3]; person, metastatic adenocarcinoma, ALK rearrangement, s/p chemotherapy, crizotinib, 1200 mg/m2/day, Schedule A",partial response
same,tumor response,"[4]; s/p chemotherapy, cetuximab",partial response
same,cycles until response achieved,[4],1 cycle
same,duration of partial response before progressive disease,[4],4 cycles
same,cycles until response achieved,[5]; 200 to 1200 mg/m^2/day,12 cycles
same,tumor response,"[5]; started at 200 mg/m^2/day, escalated to 1200 mg/m^2/day",partial response
same,number of partial responses durable >9 cycles,[6]; 25 patients evaluated,3
same,number of partial responses,"[6]; 25 patients evaluated, NSCLC, CRC and NB with TrkA, ROS1, and ALK molecular alterations",5
same,complete response,"[6]; 25 patients evaluated, patient with NSCLC with a ROS1 molecular alteration",a complete response
same,number of patients with prolonged stable disease (11+ cycles),[6]; NSCLC and pancreatic adenocarcinoma,2
